Results from ChEMBL document CHEMBL4052742, “Optimization of 1H-indazol-3-amine derivatives as potent fibroblast growth factor receptor inhibitors” (Bioorg Med Chem Lett, 2017).

Assays:
SNU-16 = test: Antiproliferative activity against human SNU16 cells after 72 hrs by CCK-8 assay; conditions: SNU-16, 72 h
KG-1 = test: Antiproliferative activity against human KG1 cells after 72 hrs by CCK-8 assay; conditions: KG-1, 72 h
[1] = biological target: Fibroblast growth factor receptor 2 (Homo sapiens, UniProt P21802); test: Inhibition of recombinant FGFR2 (unknown origin) using poly (Glu,Tyr)4:1 as substrate after 60 mins by ELISA based spectrophotometric analysis
Fibroblast growth factor receptor 2, sequence (P21802 whole entry): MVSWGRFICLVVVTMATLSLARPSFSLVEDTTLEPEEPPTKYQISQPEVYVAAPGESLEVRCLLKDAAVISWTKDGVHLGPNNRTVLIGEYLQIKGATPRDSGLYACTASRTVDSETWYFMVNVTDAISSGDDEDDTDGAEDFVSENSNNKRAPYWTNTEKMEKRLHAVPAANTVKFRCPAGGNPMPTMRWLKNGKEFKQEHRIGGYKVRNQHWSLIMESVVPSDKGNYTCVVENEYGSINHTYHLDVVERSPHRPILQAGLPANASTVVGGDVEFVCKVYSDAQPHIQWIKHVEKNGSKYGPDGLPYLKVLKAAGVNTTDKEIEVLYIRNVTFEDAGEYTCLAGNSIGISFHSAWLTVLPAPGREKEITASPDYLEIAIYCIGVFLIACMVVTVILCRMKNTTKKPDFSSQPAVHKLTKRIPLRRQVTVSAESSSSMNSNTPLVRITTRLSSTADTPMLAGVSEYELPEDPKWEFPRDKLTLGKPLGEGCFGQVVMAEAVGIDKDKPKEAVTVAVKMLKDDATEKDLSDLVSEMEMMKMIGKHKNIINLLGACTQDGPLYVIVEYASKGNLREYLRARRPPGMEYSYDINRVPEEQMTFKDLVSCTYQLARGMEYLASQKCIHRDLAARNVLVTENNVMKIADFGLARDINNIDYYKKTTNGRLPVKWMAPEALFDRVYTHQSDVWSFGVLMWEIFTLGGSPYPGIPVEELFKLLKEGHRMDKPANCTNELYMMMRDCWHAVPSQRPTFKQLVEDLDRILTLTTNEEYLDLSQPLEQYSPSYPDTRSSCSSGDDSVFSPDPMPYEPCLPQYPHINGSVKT

[2] = biological target: Fibroblast growth factor receptor 1 (Homo sapiens, UniProt P11362); test: Inhibition of recombinant FGFR1 (unknown origin) using poly (Glu,Tyr)4:1 as substrate after 60 mins by ELISA based spectrophotometric analysis
Fibroblast growth factor receptor 1, sequence (P11362 whole entry): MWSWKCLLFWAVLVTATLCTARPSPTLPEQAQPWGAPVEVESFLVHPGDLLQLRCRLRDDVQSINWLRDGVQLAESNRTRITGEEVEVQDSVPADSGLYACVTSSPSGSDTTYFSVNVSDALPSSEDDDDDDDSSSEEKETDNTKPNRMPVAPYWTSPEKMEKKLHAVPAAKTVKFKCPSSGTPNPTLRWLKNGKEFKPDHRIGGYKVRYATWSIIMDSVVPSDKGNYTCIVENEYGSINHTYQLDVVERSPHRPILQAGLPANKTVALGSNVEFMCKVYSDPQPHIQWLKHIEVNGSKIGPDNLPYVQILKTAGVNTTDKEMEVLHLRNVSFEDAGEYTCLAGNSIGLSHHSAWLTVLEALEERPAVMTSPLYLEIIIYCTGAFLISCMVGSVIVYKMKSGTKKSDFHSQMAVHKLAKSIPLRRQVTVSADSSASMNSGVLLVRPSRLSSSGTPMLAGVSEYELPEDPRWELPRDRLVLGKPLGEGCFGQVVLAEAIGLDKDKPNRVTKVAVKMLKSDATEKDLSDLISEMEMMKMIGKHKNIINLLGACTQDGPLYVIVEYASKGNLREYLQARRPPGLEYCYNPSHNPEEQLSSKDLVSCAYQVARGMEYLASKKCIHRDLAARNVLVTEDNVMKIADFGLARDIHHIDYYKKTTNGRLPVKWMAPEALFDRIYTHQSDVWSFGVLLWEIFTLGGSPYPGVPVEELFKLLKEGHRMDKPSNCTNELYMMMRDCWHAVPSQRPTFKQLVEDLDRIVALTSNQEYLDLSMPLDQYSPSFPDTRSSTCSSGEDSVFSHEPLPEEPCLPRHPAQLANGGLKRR

Compound	IC50 (SNU-16) [nM]	IC50 [1] [nM]	IC50 [2] [nM]	IC50 (KG-1) [nM]
CCN1CCN(c2ccc(C(=O)Nc3n[nH]c4cc(-c5c(F)cc(F)c(OC)c5F)ccc34)cc2)CC1	> 1000			> 1000
CCN1CCN(c2ccc(C(=O)Nc3n[nH]c4cc(-c5cccc(OC)c5F)c(F)cc34)cc2)CC1	> 1000			684
COc1ccc(F)c(-c2ccc3c(NC(=O)c4ccc(N5C[C@@H](C)N[C@@H](C)C5)cc4)n[nH]c3c2)c1F	582			348
COc1ccc(F)c(-c2ccc3c(NC(=O)c4ccc(N5CCCN(C)CC5)cc4)n[nH]c3c2)c1F	102			51.5
COc1cccc(-c2ccc3c(NC(=O)c4ccc(N5CCN(C)CC5)cc4F)n[nH]c3c2)c1F	> 1000	> 1000	> 1000	> 1000
COc1ccc(F)c(-c2ccc3c(NC(=O)c4ccc(N5CCN(C)CC5)cc4)n[nH]c3c2)c1F	35.6	< 4.1		41.5
COc1ccc(F)c(-c2ccc3c(NC(=O)c4ccc(N5CCN(C(C)=O)CC5)cc4)n[nH]c3c2)c1F	322	2.9		595
CCN1CCN(c2ccc(C(=O)Nc3n[nH]c4cc(-c5cccc(OC)c5F)cc(F)c34)cc2)CC1	> 1000			> 1000

Second part, led by results:

IC50 (SNU-16) [nM]	IC50 [1] [nM]	IC50 [2] [nM]	Compound	IC50 (KG-1) [nM]
> 1000	> 1000	> 1000	CCN1CCN(c2ccc(C(=O)Nc3n[nH]c4cc(-c5cccc(OC)c5F)ccc34)cc2C(F)(F)F)CC1	> 1000
591			CCN1CCN(c2ccc(C(=O)Nc3n[nH]c4cc(-c5cccc(OC)c5F)ccc34)cc2)CC1	284
431			COCCN1CCN(c2ccc(C(=O)Nc3n[nH]c4cc(-c5c(F)ccc(OC)c5F)ccc34)cc2)CC1	47.3
> 1000			COc1cccc(-c2ccc3c(NC(=O)c4ccc(N5CCN(C)CC5)c(F)c4)n[nH]c3c2)c1F	> 1000
366			COc1ccc(F)c(-c2ccc3c(NC(=O)c4ccc(N(C)CCN(C)C)cc4)n[nH]c3c2)c1F	333
> 1000			COCCN1CCN(c2ccc(C(=O)Nc3n[nH]c4cc(-c5c(F)cc(F)c(OC)c5F)ccc34)cc2)CC1	> 1000
77.4		< 4.1	CCN1CCN(c2ccc(C(=O)Nc3n[nH]c4cc(-c5c(F)ccc(OC)c5F)ccc34)cc2)CC1	25.3
3.4			COc1cc(CCc2cc(NC(=O)c3ccc(N4C[C@@H](C)N[C@@H](C)C4)cc3)n[nH]2)cc(OC)c1 [FEXAGRATINIB]	3.3
